Laboratory results reported in patent US20180193209A1, “A POLYMER PRODUCT AND PREPARATION THEROF” (SINGAPORE HEALTH SERVICES PTE LTD., priority 2015, published 2018).

Test system: Human dermal fibroblast cells
Assay: MTS-based cell viability assay on fiber mats
Conditions: 24 hours culture
Protocol: Human dermal fibroblast cells were cultured according to the procedures recited in Biomacromolecules, 2005, 6 (5), pp 2583-2589. Briefly, cells were cultured in DMEM medium (Gibco®) supplemented with 10% (v/v) fetal bovine serum, 50 U/ml penicillin and 50 μg/ml streptomycin in a humidified incubator at 37° C. and 5% CO2. All the cell culture reagents were obtained from Life Technologies Corporation (Singapore). For biocompatibility experiments, cells were seeded onto the coverslips precoated with scaffolds and placed at the bottom of the 12-well plates (Nunc®) at a density of 10×10^4 cells/well and allowed to grow for 24 hours before analysis. For the negative control well(s), nocodazole was added to a final concentration of 5 μg/mL in the culture medium.
Cell viability was determined using CellTier 96® Aqueous One solution cell proliferation assay kit according to the manufacturer's instruction (Promega Corporation, Madison, Wis.), and according to the procedures recited in Kim B J et al., Reinforced multifunctionalized nanofibrous scaffolds using mussel adhesive proteins, Angew Chem Int Ed Eng, 2012; 51:675-8. This assay evaluates mitochondrial function by measuring the ability of viable cells to reduce MTS ((3-(4,5-dimethylthiazol-2-yl)-5-(3-carboxymethoxyphenyl)-2-(4-sulfophenyl)-2H-tetrazolium)) into a quantifiable […] formazon product. […]

Structure (SMILES): COC(=O)Nc1nc2ccc(C(=O)c3cccs3)cc2[nH]1 [nocodazole]
- effect on cell viability (MTS): significant cell death
